Laboratory results: PubChem BioAssay AID1919002 (Molecular Pharmacology Branch, DTP, NCI, 2023)
Where “and” joins values, the source holds several entries; their conditions need not be identical. Equal values may be shown once.

System: 743489-274-T-PDC complex spheroid growth
Test: Anticancer human tumor 743489-274-T-PDC patient-derived renal cell carcinoma cell line growth inhibition [AhR]
Settings: for viability, T/C: stronger effect = lower value
Method in brief: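 Agents were dosed in half-log steps down from roughly clinical Cmax, or from 10 microM where Cmax was unknown, alone and with AhR antagonists. Read-out: percent test/control growth of tumor spheroids containing HUVEC and MSC stromal cells.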

[1] = curve of first compound, second compound 0.1 µM
[2] = curve of first compound, second compound 0.316 µM
[3] = curve of first compound, second compound 1 µM
[4] = curve of first compound, second compound 3.16 µM
[5] = curve of first compound, second compound 10 µM
[6] = second compound 0.1 µM, first compound 0.0316 µM
[7] = second compound 0.1 µM, first compound 0.1 µM
[8] = second compound 0.1 µM, first compound 0.316 µM
[9] = second compound 0.1 µM, first compound 1 µM
[10] = second compound 0.1 µM, first compound 3.16 µM
[11] = second compound 0.1 µM, first compound 10 µM
[12] = second compound 0.316 µM, first compound 0.0316 µM
[13] = second compound 0.316 µM, first compound 0.1 µM
[14] = second compound 0.316 µM, first compound 0.316 µM
[15] = second compound 0.316 µM, first compound 1 µM
[16] = second compound 0.316 µM, first compound 3.16 µM
[17] = second compound 0.316 µM, first compound 10 µM
[18] = second compound 1 µM, first compound 0.0316 µM
[19] = second compound 1 µM, first compound 0.1 µM
[20] = second compound 1 µM, first compound 0.316 µM
[21] = second compound 1 µM, first compound 1 µM
[22] = second compound 1 µM, first compound 3.16 µM
[23] = second compound 1 µM, first compound 10 µM
[24] = second compound 3.16 µM, first compound 0.0316 µM
[25] = second compound 3.16 µM, first compound 0.1 µM
[26] = second compound 3.16 µM, first compound 0.316 µM
[27] = second compound 3.16 µM, first compound 1 µM
[28] = second compound 3.16 µM, first compound 3.16 µM
[29] = second compound 3.16 µM, first compound 10 µM
[30] = second compound 10 µM, first compound 0.0316 µM
[31] = second compound 10 µM, first compound 0.1 µM
[32] = second compound 10 µM, first compound 0.316 µM
[33] = second compound 10 µM, first compound 1 µM
[34] = second compound 10 µM, first compound 3.16 µM
[35] = second compound 10 µM, first compound 10 µM
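Further: spheroids exposed to agents for 7 days before readout.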
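Wherever viability, T/C is given: 100% = DMSO vehicle control wells.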

`CC1(C)CCC(CN2CCN(c3ccc(C(=O)NS(=O)(=O)c4ccc(NCC5CCOCC5)c([N+](=O)[O-])c4)c(Oc4cnc5[nH]ccc5c4)c3)CC2)=C(c2ccc(Cl)cc2)C1` + Cc1ccccc1N=Nc1ccc(NC(=O)c2ccnn2C)c(C)c1 gave an IC50 [1] greater than 10 µM, an IC50 [2] greater than 10 µM and an IC50 [3] greater than 10 µM. The IC50 [4] was greater than 10 µM, the IC50 [5] was greater than 10 µM and the viability, T/C [6] was 91.9%. The viability, T/C [7] was 92.9%, the viability, T/C [8] was 93.9% and the viability, T/C [9] was 94.7%. For the same molecule, the viability, T/C [10] was 96.1%, the viability, T/C [11] was 94.3% and the viability, T/C [12] was 95.7%. For the same molecule, the viability, T/C [13] was 94.9%, the viability, T/C [14] was 97.5% and the viability, T/C [15] was 81.8%. For the same molecule, the viability, T/C [16] was 87.5%, the viability, T/C [17] was 81.6% and the viability, T/C [18] was 89.8%. The viability, T/C [19] was 88.4%, the viability, T/C [20] was 99.6% and the viability, T/C [21] was 99.2%. It also gave a viability, T/C [22] of 89.1%, a viability, T/C [23] of 78.3% and a viability, T/C [24] of 90.1%. The viability, T/C [25] was 91%, the viability, T/C [26] was 93.8% and the viability, T/C [27] was 85.6%. For the same molecule, the viability, T/C [28] was 75.5%, the viability, T/C [29] was 81.8% and the viability, T/C [30] was 84.8%. The viability, T/C [31] was 85.2%, the viability, T/C [32] was 90.1% and the viability, T/C [33] was 80%. For the same molecule, the viability, T/C [34] was 104% and the viability, T/C [35] was 82.1%.

`CC1COCCN1c1cc(C2(S(C)(=N)=O)CC2)nc(-c2ccnc3[nH]ccc23)n1` (configuration not stated) was tested, and the viability, T/C (compound 0.0316 µM) was 101% (2×) and 98.1%, the viability, T/C (compound 0.1 µM) was 109% and 103% and 97.3% and the viability, T/C (compound 0.316 µM) was 101% and 110% and 96.7%. The viability, T/C (compound 1 µM) was 94.8% and 103% and 108%, the viability, T/C (compound 3.16 µM) was 98.2% and 102% and 104% and the viability, T/C (compound 10 µM) was 99.1% and 92% and 114%. It also gave an IC50 (curve of compound) greater than 10 µM.

For `CC(C)c1c(-c2ccccc2)nc2c(C#N)c[nH]n2c1=O` + Cc1ccccc1N=Nc1ccc(NC(=O)c2ccnn2C)c(C)c1, the IC50 [1] was greater than 10 µM, the IC50 [2] was greater than 10 µM and the IC50 [3] was greater than 10 µM. The IC50 [4] was greater than 10 µM, the IC50 [5] was greater than 10 µM and the viability, T/C [6] was 102%. The viability, T/C [7] was 103%, the viability, T/C [8] was 93.3% and the viability, T/C [9] was 96%. It also gave a viability, T/C [10] of 109%, a viability, T/C [11] of 99.4% and a viability, T/C [12] of 102%. For the same molecule, the viability, T/C [13] was 102%, the viability, T/C [14] was 101% and the viability, T/C [15] was 94.1%. The viability, T/C [16] was 100%, the viability, T/C [17] was 91.3% and the viability, T/C [18] was 111%. It also gave a viability, T/C [19] of 93.8%, a viability, T/C [20] of 108% and a viability, T/C [21] of 109%. It also gave a viability, T/C [22] of 95.7%, a viability, T/C [23] of 96.2% and a viability, T/C [24] of 94.3%. For the same molecule, the viability, T/C [25] was 98.1%, the viability, T/C [26] was 94.5% and the viability, T/C [27] was 103%. It also gave a viability, T/C [28] of 104%, a viability, T/C [29] of 90.4% and a viability, T/C [30] of 92.2%. For the same molecule, the viability, T/C [31] was 99.2%, the viability, T/C [32] was 104% and the viability, T/C [33] was 93.2%. The viability, T/C [34] was 85.8% and the viability, T/C [35] was 86.9%.

With `CC(C)CC(NC(=O)C(Cc1ccccc1)NC(=O)c1cnccn1)B(O)O` (configuration not stated) + CC(CO)NC(=O)c1cc(-c2ccc(Cl)cc2)nn(-c2cnn(C)c2)c1=O the IC50 [1] was 0.0213 µM, the IC50 [2] was 0.0215 µM and the IC50 [3] was 0.0198 µM. The IC50 [4] was 0.0182 µM, the IC50 [5] was 0.0166 µM and the viability, T/C (second compound 0.1 µM, first compound 0.000949 µM) was 106%. The viability, T/C (second compound 0.1 µM, first compound 0.003 µM) was 102%, the viability, T/C (second compound 0.1 µM, first compound 0.00949 µM) was 104% and the viability, T/C (second compound 0.1 µM, first compound 0.03 µM) was 27.3%. For the same molecule, the viability, T/C (second compound 0.1 µM, first compound 0.0949 µM) was 10.7%, the viability, T/C (second compound 0.1 µM, first compound 0.3 µM) was 4.68% and the viability, T/C (second compound 0.316 µM, first compound 0.000949 µM) was 90.2%. For the same molecule, the viability, T/C (second compound 0.316 µM, first compound 0.003 µM) was 102%, the viability, T/C (second compound 0.316 µM, first compound 0.00949 µM) was 102% and the viability, T/C (second compound 0.316 µM, first compound 0.03 µM) was 30.3%. It also gave a viability, T/C (second compound 0.316 µM, first compound 0.0949 µM) of 11.1%, a viability, T/C (second compound 0.316 µM, first compound 0.3 µM) of 4.81% and a viability, T/C (second compound 1 µM, first compound 0.000949 µM) of 90.5%. For the same molecule, the viability, T/C (second compound 1 µM, first compound 0.003 µM) was 104%, the viability, T/C (second compound 1 µM, first compound 0.00949 µM) was 94.9% and the viability, T/C (second compound 1 µM, first compound 0.03 µM) was 24.6%. For the same molecule, the viability, T/C (second compound 1 µM, first compound 0.0949 µM) was 9.8%, the viability, T/C (second compound 1 µM, first compound 0.3 µM) was 4.5% and the viability, T/C (second compound 3.16 µM, first compound 0.000949 µM) was 94.3%. It also gave a viability, T/C (second compound 3.16 µM, first compound 0.003 µM) of 96.7%, a viability, T/C (second compound 3.16 µM, first compound 0.00949 µM) of 87.1% and a viability, T/C (second compound 3.16 µM, first compound 0.03 µM) of 21.2%. It also gave a viability, T/C (second compound 3.16 µM, first compound 0.0949 µM) of 10.7%, a viability, T/C (second compound 3.16 µM, first compound 0.3 µM) of 3.25% and a viability, T/C (second compound 10 µM, first compound 0.000949 µM) of 98%. It also gave a viability, T/C (second compound 10 µM, first compound 0.003 µM) of 111%, a viability, T/C (second compound 10 µM, first compound 0.00949 µM) of 85.4% and a viability, T/C (second compound 10 µM, first compound 0.03 µM) of 12.6%. The viability, T/C (second compound 10 µM, first compound 0.0949 µM) was 10.3% and the viability, T/C (second compound 10 µM, first compound 0.3 µM) was 4.28%.
